Values joined by “and” are separate entries in the source; they are usually repeats but may differ in a detail not shown here. Identical values can stand only once. Like-named read-outs stand apart in the source and are kept apart here.
B1: Rv0985c: MTB protein, novel CD4 T cell antigen; Cell wall and cell processes (protein, listed as Mycobacterium tuberculosis)
chain: MLKGFKEFLARGNIVDLAVAVVIGTAFTALVTKFTDSIITPLINRIGVNAQSDVGILRIGIGGGQTIDLNVLLSAAINFFLIAFAVYFLVVLPYNTLRKKGEVEQPGDTQVVLLTEIRDLLAQTNGDSPGRHGGRGTPSPTDGPRASTESQ
B2: Rv0690c: MTB protein, novel CD4 T cell antigen; Conserved hypotheticals (protein, listed as Mycobacterium tuberculosis)
chain: MTGTEHLVHTLRSQGRVCTSSGSPMYRELLELVAADVESGGVFASILADQKGAPEGQAVPLRLLGGLHRMVLDGRAPVLRRWYPSTGGTWQAEAAWPDIVRTATDQPESLRAALDRPPQTNEVGRSAALIGGLLIACLQFDLPIRLFEIGSSAGLNLRPDRYRYRYLGGEWGLADSPVRIDNAWLGELPPTATVRIVERHGYDIAPIDVTSPDGELNALSYIWPDQTDRLERLRGAIAVARNIPADLHRQAAHAAVAGMTLTDDALTVLWHSITWQYLPADERAAIRAGIDALAAQADAHCPFVHLTLEPAHQRPGAQIKYLVRMRSWPGGHARVLGECHPHGPPVTWQ
B3: Rv0290: MTB protein, novel CD4 T cell antigen; Cell wall and cell processes, Island 1, Esx-3 (protein, listed as Mycobacterium tuberculosis)
chain: MSGTVMQIVRVAILADSRLTEMALPAELPLREILPAVQRLVVPSAQNGDGGQADSGAAVQLSLAPVGGQPFSLDASLDTVGVVDGDLLVLQPVPAGPAAPGIVEDIADAAMIFSTSRLKPWGIAHIQRGALAAVIAVALLATGLTVTYRVATGVLAGLLAVAGIAVASALAGLLITIRSPRSGIALSIAALVPIGAALALAVPGKFGPAQVLLGAAGVAAWSLIALMIPSAERERVVAFFTAAAVVGASVALAAGAQLLWQLPLLSIGCGLIVAALLVTIQAAQLSALWARFPLPVIPAPGDPTPSAPPLRLLEDLPRRVRVSDAHQSGFIAAAVLLSVLGSVAIAVRPEALSVVGWYLVAATAAAATLRARVWDSAACKAWLLAQPYLVAGVLLVFYTATGRYVAAFGAVLVLAVLMLAWVVVALNPGIASPESYSLPLRRLLGLVAAGLDVSLIPVMAYLVGLFAWVLNR
B4: Rv2490c: MTB protein, novel CD4 T cell antigen; PE/PPE (protein, listed as Mycobacterium tuberculosis)
chain: MQSMSFDPAVADIGSQVVNNAFQGLQAGAVAWVSLSSLLPAGAEEVSAWAVTAFTTAATGLLALNQAAQEELRKAGEVFTAIARMYSDADVRAAACLLEAIPRPGQTLARE
B5: Rv3024c: MTB protein, novel CD4 T cell antigen; Information pathways, Island 2 (protein, listed as Mycobacterium tuberculosis)
chain: MKVLAAMSGGVDSSVAAARMVDAGHEVVGVHMALSTAPGTLRTGSRGCCSKEDAADARRVADVLGIPFYVWDFAEKFKEDVINDFVSSYARGETPNPCVRCNQQIKFAALSARAVALGFDTVATGHYARLSGGRLRRAVDRDKDQSYVLAVLTAQQLRHAAFPIGDTPKRQIRAEAARRGLAVANKPDSHDICFIPSGNTKAFLGERIGVRRGVVVDADGVVLASHDGVHGFTIGQRRGLGIAGPGPNGRPRYVTAIDADTATVHVGDVTDLDVQTLTGRAPVFTAGAAPSGPVDCVVQVRAHGETVSAVAELIGDALFVQLHAPLRGVARGQTLVLYRPDPAGDEVLGSATIAGASGLSTGGNPGA
B6: Rv1317c: MTB protein, novel CD4 T cell antigen; Information pathways (protein, listed as Mycobacterium tuberculosis)
chain: MHDDFERCYRAIQSKDARFDGWFVVAVLTTGVYCRPSCPVRPPFARNVRFLPTAAAAQGEGFRACKRCRPDASPGSPEWNVRSDVVARAMRLIADGTVDRDGVSGLAAQLGYTIRQLERLLQAVVGAGPLALARAQRMQTARVLIETTNLPFGDVAFAAGFSSIRQFNDTVRLACDGTPTALRARAAARFESATASAGTVSLRLPVRAPFAFEGVFGHLAATAVPGCEEVRDGAYRRTLRLPWGNGIVSLTPAPDHVRCLLVLDDFRDLMTATARCRRLLDLDADPEAIVEALGADPDLRAVVGKAPGQRIPRTVDEAEFAVRAVLAQQVSTKAASTHAGRLVAAYGRPVHDRHGALTHTFPSIEQLAEIDPGHLAVPKARQRTINALVASLADKSLVLDAGCDWQRARGQLLALPGVGPWTAEVIAMRGLGDPDAFPASDLGLRLAAKKLGLPAQRRALTVHSARWRPWRSYATQHLWTTLEHPVNQWPPQEKIA
B7: Rv0987: MTB protein, novel CD4 T cell antigen; Cell wall and cell processes (protein, listed as Mycobacterium tuberculosis)
chain: MNDQAPVAYAPLWRTAWRRLRQRPFQYILLVLGIALGVAMIVAIDVSSNSAQRAFDLSAAAITGKSTHRLVSGPAGVDQQLYVDLRRHGYDFSAPVIEGYVLARGLGNRAMQFMGTDPFAESAFRSPLWSNQNIAELGGFLTRPNGVVLSRQVAQKYGLAVGDRIALQVKGAPTTVTLVGLLTPADEVSNQKLSDLIIADISTAQELFHMPGRLSHIDLIIKDEATATRIQQRLPAGVRMETSDTQRDTVKQMTDAFTVNLTALSLIALLVGIFLIYNTVTFNVVQRRPFFAILRCLGVTREQLFWLIMTESLVAGLIGTGLGLLIGIWLGEGLIGLVTQTINDFYFVINVRNVSVSAESLLKGLIIGIFAAMLATLPPAIEAMRTVPASTLRRSSLESKITKLMPWLWVAWFGLGSFGVLMLWLPGNNLVVAFVGLFSVLIALALIAPPLTRFVMLRLAPGLGRLLGPIGRMAPRNIVRSLSRTSIAIAALMMAVSLMVGVSISVGSFRQTLANWLEVTLKSDVYVSPPTLTSGRPSGNLPVDAVRNISKWPGVRDAVMARYSSVFAPDWGREVELMAVSGDISDGKRPYRWIDGNKDTLWPRFLAGKGVMLSEPMVSRQHLQMPPRPITLMTDSGPQTFPVLAVFSDYTSDQGVILMDRASYRAHWQDDDVTTMFLFLASGANSGALIDQLQAAFAGREDIVIQSTHSVREASMFIFDRSFTITIALQLVATVVAFIGVLSALMSLELDRAHELGVFRAIGMTTRQLWKLMFIETGLMGGMAGLMALPTGCILAWILVRIINVRSFGWTLQMHFESAHFLRALLVAVVAALAAGMYPAWRLGRMTIRTAIREE
B8: Rv1172c: MTB protein, novel CD4 T cell antigen; PE/PPE (protein, listed as Mycobacterium tuberculosis)
chain: MSFVFAAPEALAAAAADMAGIGSTLNAANVVAAVPTTGVLAAAADEVSTQVAALLSAHAQGYQQLSRQMMTAFHDQFVQALRASADAYATAEASAAQTMVNAVNAPARALLGHPLISADASTGGGSNALSRVQSMFLGTGGSSALGGSAAANAAASGALQLQPTGGASGLSAVGALLPRAGAAAAAALPALAAESIGNAIKNLYNAVEPWVQYGFNLTAWAVGWLPYIGILAPQINFFYYLGEPIVQAVLFNAIDFVDGTVTFSQALTNIETATAASINQFINTEINWIRGFLPPLPPISPPGFPSLP
B9: Rv1441c: MTB protein, novel CD4 T cell antigen; PE/PPE (protein, listed as Mycobacterium tuberculosis)
chain: MSNVMVVPGMLSAAAADVASIGAALSAANGAAAPTTAGVLAAGADEVSAAIASLFSGYARDYQALSAQMARFHQQFVQALTASVGSYAAAEAANASPLQALEQQVLAAINAPTQTLLGRPLIGNGADGLPGQNGGAGGLLWGNGGNGGAGDAAHPNGGNGGDAGMFGNGGAGGAGYSPAAGTGAAGGAGGAGGAGGWLSGNGGAGGNGGTGASGADGGGGLPPVPASPGGNGGGGDAGGAAGMFGTGGAGGTGGDGGAGGAGDSPNSGANGARGGDGGNGAAGGAGGRLFGNGGAGGNGGTAGQGGDGGTALGAGGIGGDGGTGGAGGTGGTAGIGGSSAGAGGAGGDGGAGGTGGGSSMIGGKGGTGGNGGVGGTGGASALTIGNGSSAGAGGAGGAGGTGGTGGYIESLDGKGQAGNGGNGGNGAAGGAGGGGTGAGGNGGAGGNGGDGGPSQGGGNPGFGGDGGTGGPGGVGVPDGIGGANGAQGKHG
B10: Rv1366: MTB protein, novel CD4 T cell antigen; Conserved hypotheticals (protein, listed as Mycobacterium tuberculosis)
chain: MVVALVGSAIVDLHSRPPWSNNAVRRLGVALRDGVDPPVDCPSYAEVMLWHADLAAEVQDRIEGRSWSASELLVTSRAKSQDTLLAKLRRRPYLQLNTIQDIAGVRIDADLLLGEQTRLAREIADHFGADQPAIHDLRDHPHAGYRAVHVWLRLPAGRVEIQIRTILQSLWANFYELLADAYGRGIRYDERPEQLAAGVVPAQLQELVGVMQDASADLAMHEAEWQHCAEIEYPGQRAMALGEASKNKATVLATTKFRLERAINEAESAGGGG

Key:
[1] = system: PBMCs from LTBI donors (IFN-γ production); format: cell-based, human; details: for SFC: individual MTB epitope peptide, one value per responding LTBI donor; for Resp. freq.: fraction of 28 LTBI donors responding to epitopes of the antigen; for Resp. freq. / Total SFC: ex vivo IFN-γ ELISPOT; for Total SFC: total spot-forming cells, LTBI donors
[2] = system: PBMCs depleted of CD4+ or CD8+ T cells; format: cell-based, human
[3] = phenotype of the responding T cells per donor, n.d. = assay not done

Molecule | SFC [1] | T cell phenotype [2, 3] | T cell phenotype [2] | Resp. freq. [1] [%] | Total SFC [1] [SFC]
ALLPRAGAAAAAALP | 45.0 and 26.7 | CD4 | – | – | –
GQNYTYKWETFLTRE | 26.7 and 66.7 and 50.0 (2×) and 33.3 | CD4 and undetectable (4×) | – | – | –
LSPISNMVSMANNHM | 70.0 and 115.0 and 43.3 and 28.3 | CD4 and undetectable (3×) | – | – | –
YAAALVAMPTLAELA | 25.0 | undetectable | – | – | –
GEEYLILSARDVLAV | 136.7 and 60.0 and 145.0 and 151.7 and 45.0 and 53.3 | CD4 (4×) and undetectable (2×) | – | – | –
APYVAWMRATAIQAE | 41.7 | undetectable | – | – | –
AAGGWDSLAAELATT | 130.0 and 31.7 | CD4 and undetectable | – | – | –
FVQALTTAAASYASV | 26.7 and 23.3 | undetectable | – | – | –
IVQINGRHFDLRAQG | 26.7 | undetectable | – | – | –
LAAAAAWDALAAELY | 170.0 and 78.3 and 411.7 | CD4 | – | – | –
INLIIHYVDRPGALG | 31.7 | undetectable | – | – | –
AAVPAVGAAAGAPAA | 203.3 and 28.3 and 20.0 and 30.0 | CD4 (2×) and undetectable (2×) | – | – | –
LGGLWTAVSPHLSPL | 38.3 and 25.0 | CD4 | – | – | –
AELMILIATNLLGQN | 33.3 and 90.0 | CD4 and undetectable | – | – | –
GAMVATNFFGINTIP | – | – | CD4 and undetectable | – | –
AVLVATNFFGINTIP | – | – | CD4 and undetectable | – | –
B1 | – | – | – | 11 | 70
B2 | – | – | – | 11 | 233
B3 | – | – | – | 29 | 1552
B4 | – | – | – | 11 | 64
B5 | – | – | – | 32 | 1630
B6 | – | – | – | 11 | 97
B7 | – | – | – | 11 | 133
B8 | – | – | – | 11 | 237
B9 | – | – | – | 11 | 86
B10 | – | – | – | 11 | 308

From patent US10703784B2, “Antigens and epitopes derived from Mycobacterium tuberculosis” (priority 2011, dated 2020)
